Test results published in PubChem BioAssay (NCI).
“And” between values parts separate entries of the source, which are not always exact repeats. Equal values may be shown once.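 Exposure lasted 48 hours, with cells grown in 96-well plates and compounds tested at five concentrations. GI50: concentration for 50% inhibition of growth. TGI marks complete inhibition of growth.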

Legend:
Experiment in all cases: inhibition of tumour cell growth, NCI panel, 48 h
K-562 leukemia = tested on: K-562 leukemia
A498 renal = tested on: A498 renal
NCI-H522 lung = tested on: NCI-H522 lung
NCI-H226 lung = tested on: NCI-H226 lung
DU-145 prostate = tested on: DU-145 prostate
SNB-75 CNS = tested on: SNB-75 CNS
786-0 renal = tested on: 786-0 renal
RPMI-8226 leukemia = tested on: RPMI-8226 leukemia
HOP-92 NSCLC = tested on: HOP-92 NSCLC
HT29 colon = tested on: HT29 colon

Compound	GI50 (K-562 leukemia)	TGI (K-562 leukemia)	GI50 (A498 renal)	TGI (A498 renal)	GI50 (NCI-H522 lung)	TGI (NCI-H522 lung)	GI50 (NCI-H226 lung)	TGI (NCI-H226 lung)	GI50 (DU-145 prostate)	TGI (DU-145 prostate)	GI50 (SNB-75 CNS)	TGI (SNB-75 CNS)	GI50 (786-0 renal)	TGI (786-0 renal)	GI50 (RPMI-8226 leukemia)	TGI (RPMI-8226 leukemia)	GI50 (HOP-92 NSCLC)	TGI (HOP-92 NSCLC)	GI50 (HT29 colon)	TGI (HT29 colon)
CN(C)c1ccc2nc3ccc(=[N+](C)C)cc-3sc2c1	0.469 µM and 0.509 µM	18.7 µM and 48.5 µM	4.12 µM and 6.21 µM	22 µM and 55.8 µM	0.232 µM and 0.449 µM	0.906 µM and 4.5 µM	1.82 µM and 12.7 µM	16.6 µM and 36.6 µM	3.4 µM and 3.86 µM	16 µM and 14.8 µM	1.79 µM and 2.92 µM	10.1 µM and 17.3 µM	2.68 µM and 2.92 µM	17.6 µM and 27.1 µM	0.214 µM and 1.23 µM	26 µM and 39.6 µM	2.59 µM and 1.74 µM	24.8 µM and 11.1 µM	3.41 µM and 4.14 µM	11.2 µM and 20.8 µM
O=C1c2c(O)cccc2C(C2OC(CO)C(O)C(O)C2O)c2cc(CO)cc(O)c21 (configuration not stated)		> 100 µM		> 100 µM		> 100 µM		> 100 µM		> 100 µM		> 100 µM		> 100 µM		> 100 µM		> 100 µM		> 100 µM
COC(=O)c1cc2ccc(OC(C)=O)c(OC(C)=O)c2cn1	1.86 µM	7.32 µM and 3.75 µM		48.7 µM		34.5 µM		41.7 µM		76.3 µM		42 µM		33 µM		4.91 µM		32.4 µM		52.6 µM
O=c1nc2oc3ccc4ccccc4c3cc-2s1	0.526 µM	> 100 µM	0.184 µM	7.86 µM	0.596 µM	> 100 µM	17.7 µM	> 100 µM	11.5 µM	> 100 µM	0.476 µM	10.1 µM	3.25 µM	> 100 µM	50.9 µM	> 100 µM	1.62 µM	> 57.8 µM	18 µM	> 100 µM
C=C1C(=O)OC2C1C(OC(=O)/C(C)=C/C)CC(O)(CCl)C1C(O)C3OC3(C)C21O (configuration not stated)		> 50 µM		> 50 µM		10.2 µM		> 50 µM		> 50 µM		> 50 µM		39 µM		> 50 µM		> 50 µM		> 50 µM
O=C(Nc1ccc(Cl)cc1)Nc1ccc(Nc2nncc3ccccc23)cc1	1.68 µM	26.4 µM	3.79 µM	18.8 µM	1.32 µM	8.81 µM	2.46 µM	12.5 µM	3.17 µM	26.9 µM	1.88 µM	8.67 µM	3.09 µM	25.2 µM	2.5 µM	8.75 µM	2.55 µM	7.26 µM	2.65 µM	14.1 µM
COc1c(Cl)cc(NC(=S)C#N)cc1Cl		> 100 µM		44.5 µM		52.8 µM		57.6 µM		> 100 µM		67.4 µM		88.2 µM		> 58.7 µM		48.8 µM		> 65.8 µM
CN(C)c1ccc2c(c1)OC(N)=C(C#N)C2c1ccc2c(c1)CCO2 (configuration not stated)	< 0.023 µM	> 100 µM	< 0.0272 µM	5.59 µM	< 0.0239 µM		2.38 µM	> 62.4 µM	0.229 µM	> 100 µM	0.0812 µM	> 49.4 µM	0.0502 µM	25.1 µM	0.48 µM	28.3 µM	5.69 µM	74.3 µM	0.321 µM	
COc1ccc(/C=C2\CCCC3=C2NC(N)=NC3c2ccc(OC)c(OC)c2)cc1OC (configuration not stated)	6.17 µM	> 100 µM	13.1 µM	> 82.6 µM	7 µM	36.8 µM	3.02 µM	20.2 µM	4.98 µM	> 100 µM	2.41 µM	13.8 µM	14.2 µM	> 100 µM	0.837 µM	15.4 µM	2.61 µM	17.1 µM	7.75 µM	> 100 µM
NC(=S)N/N=C/c1ncccc1N	4.82 µM	> 93.4 µM		> 73.1 µM	1.71 µM	6.62 µM and > 10 µM	1.01 µM	8.24 µM and > 10 µM	1.04 µM		0.674 µM	25.3 µM and > 8.46 µM	0.419 µM	> 33.6 µM	1.45 µM	> 100 µM	> 87.2 µM	> 100 µM	2.19 µM	> 63.4 µM
CC[C@H](CO)Nc1nc(NCc2ccccc2)n2ncc(C(C)C)c2n1	2.44 µM	7.38 µM	1.25 µM	3.44 µM	1.46 µM	8.98 µM	1.84 µM	10.1 µM	1.3 µM	9.52 µM	1.31 µM	3.33 µM	1.98 µM	10.7 µM	2.23 µM	6.93 µM	1.67 µM	7.1 µM	2 µM	15.5 µM
CCCCN(CCCC)c1ccc(C(=N)c2ccc(N(CCCC)CCCC)cc2)cc1	0.287 µM	1.1 µM	1.24 µM	2.56 µM	0.232 µM	0.727 µM	0.593 µM	1.97 µM	0.651 µM	1.79 µM	0.746 µM	2.14 µM	0.847 µM	2.25 µM	0.396 µM	1.88 µM	0.235 µM	1.46 µM	0.282 µM	1.03 µM
O=C(Nc1cccc(NC(=O)Nc2cc(C(F)(F)F)ccc2Cl)c1)Nc1cc(C(F)(F)F)ccc1Cl	2.17 µM	44.7 µM	1.48 µM	7.63 µM	1.21 µM	7.78 µM	1.85 µM	9.28 µM	4.11 µM	17.8 µM	1.56 µM	4.51 µM	4.93 µM	> 100 µM	1.87 µM	50.7 µM	1.99 µM	5.06 µM	4.26 µM	66.1 µM
O=C(COc1ccc(/C=C2\Oc3ccccc3C2=O)cc1)Nc1nc2c(s1)CCCC2	18.8 µM	> 100 µM	30.6 µM	98.2 µM	0.165 µM	0.406 µM	8.55 µM	42 µM	0.417 µM	27.4 µM	0.221 µM	0.609 µM	0.818 µM	31.7 µM	0.261 µM	1.12 µM	0.212 µM	2.53 µM	3.21 µM	> 39.4 µM
